Reference: ChEMBL document CHEMBL4196079, “Molecular interaction of novel benzothiazolyl triazolium analogues with calf thymus DNA and HSA-their biological investigation as potent antimicrobial agents” (Eur J Med Chem, 2018)
In brackets after ≈: the same amount, converted by molar mass.

Key:
[1] = tested on: Candida albicans; test: Antifungal activity against Candida albicans ATCC 76615 after 24 hrs by NCCLS micro broth dilution method; format: functional; settings: ATCC 76615, 24 h
[2] = tested on: Pseudomonas aeruginosa; test: Antibacterial activity against Pseudomonas aeruginosa ATCC 27853 after 24 hrs by NCCLS micro broth dilution method; format: functional; settings: ATCC 27853, 24 h
[3] = tested on: Cyberlindnera jadinii; test: Antifungal activity against Candida utilis after 24 hrs by NCCLS micro broth dilution method; format: functional; settings: Williopsis jadinii
[4] = tested on: Bacillus; test: Antibacterial activity against Bacillus proteus ATCC 13315 after 24 hrs by NCCLS micro broth dilution method; format: functional; settings: ATCC 13315, 24 h
[5] = tested on: Aspergillus flavus; test: Antifungal activity against Aspergillus flavus after 24 hrs by NCCLS micro broth dilution method; format: functional
[6] = tested on: Micrococcus luteus; test: Antibacterial activity against Micrococcus luteus ATCC 4698 after 24 hrs by micro broth dilution method; format: functional; settings: ATCC 4698, 24 h
[7] = tested on: Escherichia coli; test: Antibacterial activity against Escherichia coli DH52 after 24 hrs by NCCLS micro broth dilution method; format: functional; settings: DH52, 24 h
[8] = tested on: Salmonella typhi; test: Antibacterial activity against Salmonella typhi after 24 hrs by NCCLS micro broth dilution method; format: functional, Salmonella enterica subsp. enterica serovar Typhi; settings: Salmonella enterica
[9] = tested on: Staphylococcus aureus; test: Antibacterial activity against Staphylococcus aureus ATCC 25923 after 24 hrs by NCCLS micro broth dilution method; format: functional; settings: ATCC 25923, 24 h
[10] = tested on: Staphylococcus aureus; test: Antibacterial activity against methicillin-resistant Staphylococcus aureus N315 after 24 hrs by NCCLS micro broth dilution method; format: functional; settings: N315, 24 h
[11] = tested on: Escherichia coli; test: Antibacterial activity against Escherichia coli JM109 after 24 hrs by NCCLS micro broth dilution method; format: functional; settings: JM109, 24 h
[12] = tested on: Shigella dysenteriae; test: Antibacterial activity against Shigella dysenteriae after 24 hrs by NCCLS micro broth dilution method; format: functional
[13] = tested on: Bacillus subtilis; test: Antibacterial activity against Bacillus subtilis ATCC 21216 after 24 hrs by NCCLS micro broth dilution method; format: functional; settings: ATCC 21216, 24 h
[14] = tested on: Saccharomyces cerevisiae; test: Antifungal activity against Saccharomyces cerevisiae after 24 hrs by NCCLS micro broth dilution method; format: functional
[15] = tested on: Pichia norvegensis; test: Antifungal activity against Candida mycoderma after 24 hrs by NCCLS micro broth dilution method; format: functional

Row | Compound | MIC [1] | MIC [2] | MIC [3] | MIC [4] | MIC [5] | MIC [6] | MIC [7] | MIC [8] | MIC [9] | MIC [10] | MIC [11] | MIC [12] | MIC [13] | MIC [14] | MIC [15]
1 | Clc1ccc(Cn2cc(COCc3c(-c4ccccc4)nc4sc5ccccc5n34)nn2)c(Cl)c1 | 32 µg/mL (≈ 61.5 µM) | 8 µg/mL (≈ 15.4 µM) | 32 µg/mL (≈ 61.5 µM) | 32 µg/mL (≈ 61.5 µM) | 256 µg/mL (≈ 492 µM) | 32 µg/mL (≈ 61.5 µM) | 16 µg/mL (≈ 30.7 µM) | 64 µg/mL (≈ 123 µM) | 64 µg/mL (≈ 123 µM) | 32 µg/mL (≈ 61.5 µM) | 64 µg/mL (≈ 123 µM) | 64 µg/mL (≈ 123 µM) | 64 µg/mL (≈ 123 µM) | 64 µg/mL (≈ 123 µM) | 32 µg/mL (≈ 61.5 µM)
2 | Clc1cccc(Cn2cc(COCc3c(-c4ccccc4)nc4sc5ccccc5n34)nn2)c1 | 8 µg/mL (≈ 16.5 µM) | 32 µg/mL (≈ 65.8 µM) | 32 µg/mL (≈ 65.8 µM) | 64 µg/mL (≈ 132 µM) | 128 µg/mL (≈ 263 µM) | 32 µg/mL (≈ 65.8 µM) | 64 µg/mL (≈ 132 µM) | 64 µg/mL (≈ 132 µM) | 64 µg/mL (≈ 132 µM) | 32 µg/mL (≈ 65.8 µM) | 64 µg/mL (≈ 132 µM) | 32 µg/mL (≈ 65.8 µM) | 32 µg/mL (≈ 65.8 µM) | 64 µg/mL (≈ 132 µM) | 16 µg/mL (≈ 32.9 µM)
3 | CCOc1ccc2c(c1)sc1nc(-c3ccccc3)c(COCc3cn(Cc4ccc(Cl)cc4)nn3)n12 | 32 µg/mL (≈ 60.4 µM) | 32 µg/mL (≈ 60.4 µM) | 64 µg/mL (≈ 121 µM) | 64 µg/mL (≈ 121 µM) | 128 µg/mL (≈ 241 µM) | 32 µg/mL (≈ 60.4 µM) | 64 µg/mL (≈ 121 µM) | 64 µg/mL (≈ 121 µM) | 64 µg/mL (≈ 121 µM) | 64 µg/mL (≈ 121 µM) | 64 µg/mL (≈ 121 µM) | 64 µg/mL (≈ 121 µM) | 64 µg/mL (≈ 121 µM) | 64 µg/mL (≈ 121 µM) | 16 µg/mL (≈ 30.2 µM)
4 | Clc1ccc(Cn2cc(COCc3c(-c4ccccc4)nc4sc5ccccc5n34)nn2)cc1Cl | 32 µg/mL (≈ 61.5 µM) | 16 µg/mL (≈ 30.7 µM) | 64 µg/mL (≈ 123 µM) | 8 µg/mL (≈ 15.4 µM) | 256 µg/mL (≈ 492 µM) | 32 µg/mL (≈ 61.5 µM) | 64 µg/mL (≈ 123 µM) | 64 µg/mL (≈ 123 µM) | 64 µg/mL (≈ 123 µM) | 16 µg/mL (≈ 30.7 µM) | 64 µg/mL (≈ 123 µM) | 32 µg/mL (≈ 61.5 µM) | 16 µg/mL (≈ 30.7 µM) | 64 µg/mL (≈ 123 µM) | 32 µg/mL (≈ 61.5 µM)
5 | CCCCCn1cc(COCc2c(-c3ccccc3)nc3sc4ccccc4n23)nn1 | 32 µg/mL (≈ 74.1 µM) | 128 µg/mL (≈ 297 µM) | 8 µg/mL (≈ 18.5 µM) | 64 µg/mL (≈ 148 µM) | 256 µg/mL (≈ 593 µM) | 128 µg/mL (≈ 297 µM) | 32 µg/mL (≈ 74.1 µM) | 4 µg/mL (≈ 9.27 µM) | 64 µg/mL (≈ 148 µM) | 8 µg/mL (≈ 18.5 µM) | 64 µg/mL (≈ 148 µM) | 4 µg/mL (≈ 9.27 µM) | 64 µg/mL (≈ 148 µM) | 32 µg/mL (≈ 74.1 µM) | 16 µg/mL (≈ 37.1 µM)
6 | CCCCCCn1cc(COCc2c(-c3ccccc3)nc3sc4cc(OCC)ccc4n23)nn1 | 64 µg/mL (≈ 131 µM) | 128 µg/mL (≈ 261 µM) | 16 µg/mL (≈ 32.7 µM) | 128 µg/mL (≈ 261 µM) | 128 µg/mL (≈ 261 µM) | 128 µg/mL (≈ 261 µM) | 128 µg/mL (≈ 261 µM) | 128 µg/mL (≈ 261 µM) | 128 µg/mL (≈ 261 µM) | 64 µg/mL (≈ 131 µM) | 64 µg/mL (≈ 131 µM) | 128 µg/mL (≈ 261 µM) | 128 µg/mL (≈ 261 µM) | 32 µg/mL (≈ 65.4 µM) | 16 µg/mL (≈ 32.7 µM)
7 | CCCCCCCn1cc(COCc2c(-c3ccccc3)nc3sc4ccccc4n23)nn1 | 32 µg/mL (≈ 69.6 µM) | 64 µg/mL (≈ 139 µM) | 16 µg/mL (≈ 34.8 µM) | 64 µg/mL (≈ 139 µM) | 256 µg/mL (≈ 557 µM) | 128 µg/mL (≈ 278 µM) | 64 µg/mL (≈ 139 µM) | 64 µg/mL (≈ 139 µM) | 128 µg/mL (≈ 278 µM) | 128 µg/mL (≈ 278 µM) | 128 µg/mL (≈ 278 µM) | 128 µg/mL (≈ 278 µM) | 128 µg/mL (≈ 278 µM) | 32 µg/mL (≈ 69.6 µM) | 32 µg/mL (≈ 69.6 µM)
8 | CCCCCCCn1cc(COCc2c(-c3ccccc3)nc3sc4cc(OCC)ccc4n23)nn1 | 32 µg/mL (≈ 63.5 µM) | 128 µg/mL (≈ 254 µM) | 64 µg/mL (≈ 127 µM) | 128 µg/mL (≈ 254 µM) | 128 µg/mL (≈ 254 µM) | 128 µg/mL (≈ 254 µM) | 128 µg/mL (≈ 254 µM) | 128 µg/mL (≈ 254 µM) | 128 µg/mL (≈ 254 µM) | 64 µg/mL (≈ 127 µM) | 64 µg/mL (≈ 127 µM) | 128 µg/mL (≈ 254 µM) | 128 µg/mL (≈ 254 µM) | 64 µg/mL (≈ 127 µM) | 32 µg/mL (≈ 63.5 µM)
9 | CCOc1ccc2c(c1)sc1nc(-c3ccccc3)c(COCc3cn(Cc4ccc([N+](=O)[O-])cc4)nn3)n12 | 32 µg/mL (≈ 59.2 µM) | 128 µg/mL (≈ 237 µM) | 4 µg/mL (≈ 7.4 µM) | 32 µg/mL (≈ 59.2 µM) | 128 µg/mL (≈ 237 µM) | 512 µg/mL (≈ 947 µM) | 128 µg/mL (≈ 237 µM) | 4 µg/mL (≈ 7.4 µM) | 128 µg/mL (≈ 237 µM) | 128 µg/mL (≈ 237 µM) | 2 µg/mL (≈ 3.7 µM) | 128 µg/mL (≈ 237 µM) | 256 µg/mL (≈ 474 µM) | 16 µg/mL (≈ 29.6 µM) | 8 µg/mL (≈ 14.8 µM)
10 | CCn1cc(C(=O)O)c(=O)c2cc(F)c(N3CCNCC3)cc21 [NORFLOXACIN] |  | 16 µg/mL (≈ 50.1 µM) |  | 8 µg/mL (≈ 25.1 µM) |  | 2 µg/mL (≈ 6.26 µM) | 1 µg/mL (≈ 3.13 µM) | 4 µg/mL (≈ 12.5 µM) | 2 µg/mL (≈ 6.26 µM) | 8 µg/mL (≈ 25.1 µM) | 1 µg/mL (≈ 3.13 µM) | 16 µg/mL (≈ 50.1 µM) | 4 µg/mL (≈ 12.5 µM) |  | 
11 | CCOc1ccc2c(c1)sc1nc(-c3ccccc3)c(COCc3cn(Cc4ccccc4F)nn3)n12 | 32 µg/mL (≈ 62.3 µM) | 128 µg/mL (≈ 249 µM) | 16 µg/mL (≈ 31.2 µM) | 64 µg/mL (≈ 125 µM) | 128 µg/mL (≈ 249 µM) | 128 µg/mL (≈ 249 µM) | 128 µg/mL (≈ 249 µM) | 128 µg/mL (≈ 249 µM) | 128 µg/mL (≈ 249 µM) | 128 µg/mL (≈ 249 µM) | 128 µg/mL (≈ 249 µM) | 64 µg/mL (≈ 125 µM) | 256 µg/mL (≈ 498 µM) | 64 µg/mL (≈ 125 µM) | 32 µg/mL (≈ 62.3 µM)
